Experimental data as given in patent US12383502B2, “Cold-water-dispersible chemical delivery system” (PHARMAKO BIOTECHNOLOGIES PTY LIMITED, priority 2017, dated 2025).
Where two headings read alike, the source gives them in different places. Values belong to the compound of their own block, whether it stands above or below them.

Experiments:
[1] = Dispersion of composition in water (visual); type: physicochemical; conditions: for liquid dispersibility / wettability: solid placed on liquid (FIG. 2)
[2] = PEA pharmacokinetics, single 300 mg dose; type: in vivo, human; conditions: for Cmax: po, 300 mg
Protocol: A single equivalent dose, randomised, double blinded study was used to evaluate the pharmacokinetics of 2 different PEA formulations administered in single 300 mg doses (standard PEA and Lipisperse PEA from Batch#MT20170615_01 described in Example 7). All trial participants, investigators conducting the trial and the biochemist analysing the samples were blinded to who was on each product.
Subjects were healthy adult male (n=10) and female (n=8; non-pregnant and non-lactating) volunteers between the ages of 18-30 years. All participants were advised to fast from 10:[…] the night prior to the study commencing until the collection of the first blood sample. Breakfast and lunch were provided to the participants at the centre. This is a standard feeding study with nutritionally balanced meals and snacks provided during the 0-6 hour sample collection. Subjects remained on site for the full 6 hours of sample collection. Only participants who provided at least 9 of the 11 samples collected between 0-24 hours had their data analysed.
For PEA pharmacokinetic analysis, blood samples (3mL collected into ethylenediaminetetraacetic acid (EDTA) containing tubes) were drawn prior to supplementation (hour 0) and at 30, 45, 60, 90, 120, 180, 240, 300, 360 minutes and 24 hours post supplementation. Once obtained, the blood collection tube was briefly mixed by inversion, placed on ice and centrifuged within 10 minutes of collection (600×g, 4° C. for 10 minutes) to separate the plasma. Once spun, EDTA plasma was carefully removed and approximately 3×500 μl aliquots made. Aliquots were temporarily stored at −20° C. (<48 hours) before being transported and stored at −80° C.
Plasma samples were removed from storage at −80° C. and allowed to thaw to room temperature. Once thawed, 100 μL of sample was added to a microfuge tube along with 20 μL of an internal standard solution (50 ng/mL of D8-arachidonic acid (D8-AA) in ethanol). Proteins were precipitated by adding 100 μL of acetone. The tubes were capped and vortex mixed for 15 seconds then put on ice for 10 minutes. The resulting solution was spun at 12,000×g for 10 minutes before the supernatant was removed into a new tube. To the supernatant, 800 μL of a methanol/chloroform solution (2:1) was added along with 240 μL of 3M HCl to achieve phase separation. This solution was vortex mixed for 10 seconds followed by gentle mixing on rotator. After 10 minutes of gentle rotation, the tubes were centrifuged at 12,000×g for 10 minutes with the resulting chloroform layer (bottom layer) transferred to a glass culture tube and dried under a stream of nitrogen gas.
Once dry, the samples were reconstituted in 100 μL of ethanol, mixed and the contents transferred to salinized GC-MS glass inserts and dried under nitrogen. Once dry, the samples were derivatized via the addition of 40 μL of pentafluorobenzylbromide (PFBBr, 10% in acetonitrile −4 μL of PFBBr and 36 μL of ACN) and 20 μL di-isopropylethylamine (DIPEA, 10% in acetonitrile−2 μL DIPEA and 18 μL of ACN) and vortex mixed for 5 seconds. Samples were then incubated at room temperature for 30 min before being dried under nitrogen and the insert placed into GC-MS vials. To each vial, 10 μL of anhydrous pyridine and 20 μL of bis-(trimethylsilyl)trifluoroacetamide and trimethylchlorosilane (BSTFA+TMCS, 99:1) was added, the vial capped and vortex mixed for 5 seconds. The samples were incubated for 20 min at 45° C. The samples were allowed to cool before 70 μL of anhydrous hexane was added and the samples place on the auto sampler rack for analysis.
The standard PEA was purchased from Sigma Aldrich (P0359-10MG) and stored at −20° C. as per manufacturer's instructions. The PEA standard was made up to 1 mM solution with ethanol. Working standard solutions were prepared by diluting the 1 mM solution (or 1 μM/mL) 1:10 with ethanol for a 100 nM/mL solution. This solution was further diluted 1:10 with hexane for a concentration of 10 nM/mL. […]

Structure (SMILES): COc1cc(/C=C/C(=O)CC(=O)/C=C/c2ccc(O)c(OC)c2)ccc1O [curcumin]
liquid dispersibility / wettability [1]: sitting on top of a liquid, without dispersion

dispersion in water after mixing and standing ([1]; added to water, mixed and allowed to stand (FIG. 10, FIG. 16)): does not disperse effectively
Structure (SMILES): Oc1ccc(C=Cc2cc(O)cc(O)c2)cc1 [untreated resveratrol, resveratrol]

Cmax ([2]; both sexes, human, plasma, plasma, single oral 300 mg, n=9 per group, read-out: Cmax PEA): 3010 ± 1240 ng/mL
Cmax ([2]; both sexes, human, plasma, plasma, single oral 300 mg, n=9 per group, read-out: Delta Cmax (peak change in PEA concentration from baseline)): 410 ng/mL
concentration at 24 h ([2]; both sexes, human, plasma, single oral 300 mg, data not shown, read-out: plasma PEA concentration at the 24 hours collection): 2690 ± 1060 ng/mL
concentration at 0 h ([2]; both sexes, human, plasma, prior to supplementation (hour 0), n=9 per group, read-out: Baseline PEA concentration): 2590 ± 770 ng/mL
Peak timing ([2]; plasma PEA, single oral 300 mg): 45 min
Structure (SMILES): CCCCCCCCCCCCCCCC(=O)NCCO [Standard PEA, Palmitoylethanolamide]
adverse events ([2]; single 300 mg dose, n=9 per group): No adverse events

Structure (SMILES): CCCCCCCCCCCCCCCC(=O)NCCO [PEA, Palmitoylethanolamide]
liquid dispersibility / wettability [1]: sitting on top of a liquid, without dispersion
